Tests used:
Format in all cases: in vivo
lymphocytes = experiment: first pilot experiment, rat EAE model: hematology, lymphocyte counts; details: ponesimod 30 mg/kg oral q.d.; over 24 hours
Experimental: (§1) Groups of 10 rats are dosed orally starting at the day of disease induction (day 0) with different doses of teriflunomide in the range between 1 and 10 mg/kg once daily (q.d.) or with 30 mg/kg ponesimod q.d. Clinical scores are assessed on a daily basis and disease development is compared between vehicle-treated rats and rats receiving teriflunomide or ponesimod (vehicle: 0.5% Methylcellulose/0.5% Tween® 80/water). In parallel, body weights of the rats are monitored on a daily basis to follow general health. Hematology parameters, including lymphocyte counts, are measured at 3 different time points: 6 and 24 hours after the oral gavage at day 20 and at the termination of the experiment at day 21, 3 hours post dosing. Plasma samples can be taken for compound concentration determination and for the measurement of protein markers. Based on the first pilot experiment described above one dose of teriflunomide is selected for the combination efficacy experiment.

[1] = system: acute monophasic rat EAE model; experiment: combination efficacy experiment, acute monophasic rat EAE model: clinical scores; details: for efficacy on the clinical course of EAE (average clinical score, FIG. 1): each compound alone, ponesimod 30 mg/kg q.d., teriflunomide 1 mg/kg q.d., from day 0, 21 days study; for severity of the disease (maximal clinical score reached over the 21 days study, FIG. 2): ponesimod 30 mg/kg q.d. and/or teriflunomide 1 mg/kg q.d. from day 0
Experimental: Female Lewis rats are immunized with an emulsion of myelin basic protein (MBP) from Guinea pig in complete Freund's adjuvant. A total of 200 micrograms of MBP is injected per rat at two sites subcutaneously (right paw and base of tail). Within 10 days the rats develop signs of paralysis which will be graded on a scale from 0 to 15 assessing the tail and each limb individually according to the method originally described by Weaver A. et al., FASEB J., 2005, 19(12): 1668-1670. The disease takes an acute monophasic course and is self-remitting. Usually by day 21 clinical scores reach values below 3.0.
as §1, with “markers.” for “markers. Based on the first pilot experiment described above one dose of teriflunomide is selected for the combination efficacy experiment.”
The combination efficacy experiment is performed in the same rat EAE model as described for the first pilot experiment. It consists of four treatment groups: • 1. Vehicle (0.5% Methylcellulose/0.5% Tween® 80/water) q.d., from day 0 • 2. Teriflunomide (1 mg/kg) q.d., from day 0 • 3. Ponesimod (30 mg/kg) q.d., from day 0 • 4. Teriflunomide (1 mg/kg) q.d., from day 0+ponesimod (30 mg/kg) q.d., from day 0
In life and termination endpoints are the same as described for the first pilot experiment.
Data collected in the pilot experiment are similar to those obtained in the combination study and therefore are used to increase the monotherapy groups size in order to increase sensitivity as described by Bate S. et al., PLoS One., 2014, 9(12): e114872. […] When combined, the two compounds benefit from each other.

[2] = combination efficacy experiment, acute monophasic rat EAE model: body weight; details: ponesimod 30 mg/kg q.d. from day 0; over the 21 days study
Experimental: as §1, with “markers. The combination efficacy experiment is performed in the same rat EAE model as described for” for “markers. Based on”, “pilot experiment. It consists of four treatment groups: • 1. Vehicle (0.5% Methylcellulose/0.5% Tween® 80/water) q.d., from day 0 • 2. Teriflunomide (1 mg/kg) q.d., from day 0 • 3. Ponesimod (30 mg/kg) q.d., from day 0 • 4. Teriflunomide (1 mg/kg) q.d., from day 0+ponesimod (30 mg/kg) q.d., from day 0 In life and termination endpoints are the same as” for “pilot experiment”, “described” for “described above one dose of teriflunomide is selected”, “the first pilot” for “the combination efficacy”, “experiment. […]” for “experiment.”

[3] = system: acute monophasic models of experimental autoimmune encephalomyelitis (EAE); experiment: first pilot experiment, acute monophasic rat EAE model: clinical scores; details: female Lewis rats, teriflunomide 1 mg/kg oral q.d. from day 0
Experimental: The efficacy of teriflunomide and ponesimod in acute monophasic models of experimental autoimmune encephalomyelitis (EAE) can be determined in a pilot experiment. Female Lewis rats are immunized with an emulsion of myelin basic protein (MBP) from Guinea pig in complete Freund's adjuvant. A total of 200 micrograms of MBP is injected per rat at two sites subcutaneously (right paw and base of tail). Within 10 days the rats develop signs of paralysis which will be graded on a scale from 0 to 15 assessing the tail and each limb individually according to the method originally described by Weaver A. et al., FASEB J., 2005, 19(12): 1668-1670. The disease takes an acute monophasic course and is self-remitting. Usually by day 21 clinical scores reach values below 3.0. Groups of 10 rats are dosed orally starting at the day of disease induction (day 0) with different doses of teriflunomide in the range between 1 and 10 mg/kg once daily (q.d.) or with 30 mg/kg ponesimod q.d. Clinical scores are assessed on a daily basis and disease development is compared between vehicle-treated rats and rats receiving teriflunomide or ponesimod (vehicle: 0.5% Methylcellulose/0.5% Tween® 80/water). In parallel, body weights of the rats are monitored on a daily basis to follow general health. Hematology parameters, including lymphocyte counts, are measured at 3 different time points: 6 and 24 hours after the oral gavage at day 20 and at the termination of the experiment at day 21, 3 hours post dosing. Plasma samples can be taken for compound concentration determination and for the measurement of protein markers. Based on the first pilot experiment described above one dose of teriflunomide is selected for the combination efficacy experiment.

[4] = teriflunomide alone 1 mg/kg q.d. from day 0

CCC/N=C1\S/C(=C\c2ccc(OC[C@H](O)CO)c(Cl)c2)C(=O)N1c1ccccc1C [ponesimod, (R)-5-[3-chloro-4-(2,3-dihydroxy-propoxy)-benz[Z]ylidene]-2-([Z]-propylimino)-3-o-tolyl-thiazolidin-4-one]
reduction of lymphocytes (lymphocytes): partial reduction of lymphocytes
efficacy on the clinical course of EAE (average clinical score, FIG. 1) [1]: moderate efficacy
severity of the disease (maximal clinical score reached over the 21 days study, FIG. 2) [1]: no effect
effect on clinical score during the ascending phase (FIG. 1) ([1]; ponesimod 30 mg/kg q.d. from day 0): moderate effect
body weight loss (FIG. 3 and FIG. 4) [2]: reduction in body weight loss

C/C(O)=C(\C#N)C(=O)Nc1ccc(C(F)(F)F)cc1 [teriflunomide, (Z)-2-cyano-3-hydroxy-but-2-enoic acid-(4-trifluoromethylphenyl)-amide]
disease onset [3]: strong delay of disease onset
efficacy on EAE scores [3]: partial efficacy
severity of the disease [3]: without affecting the severity of the disease
efficacy on the clinical course of EAE (average clinical score, FIG. 1) [1]: moderate efficacy
severity of the disease (maximal clinical score reached over the 21 days study, FIG. 2) [1]: no effect
disease onset (FIG. 1) [1, 4]: strong delay of disease onset
efficacy on EAE scores (FIG. 1 and FIG. 2) [1, 4]: partial efficacy

— patent publication US12527772B2, “Pharmaceutical combination comprising ponesimod” (Vanda Pharmaceuticals Inc., priority 2017, dated 2026)
